Structures can show the parent of a compound that is named as a salt. Where two headings read alike, the source gives them in different places.

The target in experiment [1] is human recombinant 5-HT1A receptor (Homo sapiens (Human), UniProt P08908). Description: 5-HT1A receptor agonism activity test (inhibition of cAMP production, LANCE cAMP 384 Kit). It counts as cell-based. The note with it: HEK293 cells expressing human recombinant 5-HT1A receptor; test concentration 0.1 nM-10000 nM; read-out: 5-HT1A receptor agonism (EC50, mol/L). The text has this:
Pharmacological Test 1) 5-HT1A Receptor Agonism Activity Test

Experiment [2] addresses human recombinant 5-HT2A receptor (Homo sapiens (Human), UniProt P28223). Description: 5-HT2A receptor antagonism activity test (FLIPR Calcium 5 Assay Kit). The following applies: read-out: 5-HT2A receptor antagonism (IC50, mol/L).
Experiment [3] addresses human recombinant D2 receptor (Homo sapiens (Human), UniProt P14416). Description: D2 receptor antagonism activity test (inhibition of dopamine-induced decrease of cAMP production, LANCE cAMP 384 Kit). The note with it: read-out: D2 receptor antagonism (IC50, mol/L), HEK293 cells expressing human recombinant D2 receptor, 0.1 nM-10000 nM.
[4] abbreviates: CHO-K1 cells expressing human recombinant 5-HT2A receptor, α-methyl-5-hydroxytryptamine 300 nM, 0.1 nM-10000 nM.

Sequence of human recombinant 5-HT1A receptor (P08908 whole entry): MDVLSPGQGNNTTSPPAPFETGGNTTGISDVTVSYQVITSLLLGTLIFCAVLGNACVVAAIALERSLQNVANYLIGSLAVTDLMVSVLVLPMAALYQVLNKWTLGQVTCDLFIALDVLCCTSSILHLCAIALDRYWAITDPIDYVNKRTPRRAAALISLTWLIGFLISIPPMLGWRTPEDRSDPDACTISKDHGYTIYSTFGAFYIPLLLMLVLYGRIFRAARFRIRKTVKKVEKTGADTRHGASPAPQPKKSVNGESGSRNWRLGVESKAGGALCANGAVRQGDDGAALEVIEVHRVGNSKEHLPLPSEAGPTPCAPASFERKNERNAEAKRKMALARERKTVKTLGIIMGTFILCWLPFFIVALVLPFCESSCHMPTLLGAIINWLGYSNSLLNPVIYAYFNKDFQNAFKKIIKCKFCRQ
Sequence of human recombinant D2 receptor (P14416 whole entry): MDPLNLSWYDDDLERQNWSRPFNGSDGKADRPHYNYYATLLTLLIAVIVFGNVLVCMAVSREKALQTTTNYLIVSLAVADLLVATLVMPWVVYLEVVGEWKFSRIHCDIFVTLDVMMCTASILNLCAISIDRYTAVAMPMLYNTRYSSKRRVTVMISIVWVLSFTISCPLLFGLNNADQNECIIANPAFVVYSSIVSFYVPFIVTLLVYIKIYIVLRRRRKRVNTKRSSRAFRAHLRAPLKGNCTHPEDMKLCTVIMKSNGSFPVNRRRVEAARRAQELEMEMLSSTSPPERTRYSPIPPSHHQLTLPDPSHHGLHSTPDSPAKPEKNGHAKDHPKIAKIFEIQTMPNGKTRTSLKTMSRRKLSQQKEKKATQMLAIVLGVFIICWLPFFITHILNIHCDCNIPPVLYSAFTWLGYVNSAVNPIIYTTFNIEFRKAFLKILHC
Sequence of human recombinant 5-HT2A receptor (P28223 whole entry): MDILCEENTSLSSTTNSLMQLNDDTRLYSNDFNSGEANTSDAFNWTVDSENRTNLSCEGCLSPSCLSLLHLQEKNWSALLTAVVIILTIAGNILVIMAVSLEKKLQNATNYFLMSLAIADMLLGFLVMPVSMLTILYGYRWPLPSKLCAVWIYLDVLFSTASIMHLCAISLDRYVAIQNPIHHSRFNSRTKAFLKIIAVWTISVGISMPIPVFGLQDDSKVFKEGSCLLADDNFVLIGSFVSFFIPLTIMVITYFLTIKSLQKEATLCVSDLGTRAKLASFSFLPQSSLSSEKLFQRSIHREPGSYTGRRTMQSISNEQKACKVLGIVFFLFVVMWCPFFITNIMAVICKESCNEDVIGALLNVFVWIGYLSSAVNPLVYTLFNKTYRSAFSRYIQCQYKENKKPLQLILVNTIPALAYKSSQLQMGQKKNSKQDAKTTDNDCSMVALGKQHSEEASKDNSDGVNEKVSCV

Regarding `O=C1Cc2cc(CCN3CCC(c4cccc5sccc45)CC3)c(Cl)cc2N1` [Compound of example 37, 5-(2-(4-(benzo[b]thiophen-4-yl)piperidin-1-yl)ethyl)-6-chloroindolin-2-one], the EC50 in experiment [1] was found to be 0.00311 µM. Besides, the IC50 stood at 0.0281 µM in experiment [2] (setting [4]) and 0.0519 µM in experiment [3].
With `Nc1nc2c(CCN3CCN(c4cccc5sccc45)CC3)cccc2s1` [Compound of example 120, 4-(2-(4-(benzo[b]thiophen-4-yl)piperazin-1-yl)ethyl)benzo[d]thiazol-2-amine], the IC50 in experiment [3] came out at 0.229 µM.
For the compound `O=C1Cc2cc(CCN3CCN(c4cc(F)cc5sccc45)CC3)ccc2N1` [Compound of example 84, 5-(2-(4-(6-fluorobenzo[b]thiophen-4-yl)piperazin-1-yl)ethyl)indolin-2-one], the EC50 in experiment [1] came out at 0.000235 µM. For the same compound, the IC50 in experiment [2] (setting [4]) came out at 0.0175 µM; in experiment [3], 0.0109 µM.
In the case of `O=C1CCc2cc(CCCCN3CCC(c4cccc5sccc45)CC3)ccc2N1` [Compound of example 104, 6-(4-(4-(benzo[b]thiophen-4-yl)piperidin-1-yl)butyl)-3,4-dihydroquinolin-2(1H)-one], the EC50 in experiment [1] turned out to be 0.0123 µM. The IC50 was 0.106 µM in experiment [2] (setting [4]) and 0.0988 µM in experiment [3].
Regarding `Nc1nc2cc(CCN3CCN(c4cccc5sccc45)CC3)ccc2s1` [Compound of example 116, 5-(2-(4-(benzo[b]thiophen-4-yl)piperazin-1-yl)ethyl)benzo[d]thiazol-2-amine], in experiment [3], the IC50 was found to be 0.00597 µM.
On to `O=c1[nH]cnc2ccc(CCCCCN3CCN(c4cccc5sccc45)CC3)cc12` [Compound of example 34, 6-(5-(4-(benzo[b]thiophen-4-yl)piperazin-1-yl)pentyl)quinazolin-4(3H)-one hydrochloride], for which, in experiment [1], the EC50 was 0.054 µM. Moreover, the IC50 in experiment [3] stood at 0.324 µM.
With `O=C1COc2ccc(CCN3CCC(c4cccc5sccc45)CC3)cc2N1` [Compound of example 97, 6-(2-(4-(benzo[b]thiophen-4-yl)piperidin-1-yl)ethyl)-2H-benzo[b][1,4]oxazin-3(4H)-one], the EC50 in experiment [1] was found to be 0.000223 µM. For the same compound, the IC50 is 0.173 µM in experiment [2] (setting [4]) and 0.00681 µM in experiment [3].
Take `O=C1Cc2cc(CCCCN3CCN(c4cccc5sc(F)cc45)CC3)ccc2N1` [Compound of example 101, 5-(4-(4-(2-fluorobenzo[b]thiophen-4-yl)piperazin-1-yl)butyl)indolin-2-one]: in experiment [1], the EC50 came to 0.0168 µM. The figures for the IC50 in experiment [2] (setting [4]) and in experiment [3] were 0.759 µM and 0.00184 µM, respectively.
On to `O=c1ccc2ccc(CCN3CCN(c4cccc5sccc45)CC3)cc2[nH]1` [Compound of example 9, 7-(2-(4-(benzo[b]thiophen-4-yl)piperazin-1-yl)ethyl)quinolin-2(1H)-one], for which the EC50 in experiment [1] was 0.000972 µM. For the same compound, the values for the IC50 in experiment [2] and in experiment [3] were 0.0956 µM and 0.00706 µM, respectively.
For the compound `Cc1nc2ccc(CCCCCN3CCN(c4cccc5sccc45)CC3)cc2c(=O)[nH]1` [Compound of example 24, 6-(5-(4-(benzo[b]thiophen-4-yl)piperazin-1-yl)pentyl)-2-methylquinazolin-4(3H)-one], the EC50 in experiment [1] amounted to 0.0259 µM. Moreover, the IC50 in experiment [2] (setting [4]) was determined as 0.781 µM; in experiment [3], 0.0507 µM.
For the compound `CC(=O)Nc1nc2ccc(CCN3CCN(c4cccc5sccc45)CC3)cc2s1` [Compound of example 153, N-(6-(2-(4-(benzo[b]thiophen-4-yl)piperazin-1-yl)ethyl)benzo[d]thiazol-2-yl)acetamide], the EC50 in experiment [1] was found to be 0.00235 µM. Further, the IC50 in experiment [2] (setting [4]) stood at 0.0189 µM; in experiment [3], 0.0038 µM.
Turning to `COc1ccc2[nH]cc(CCCN3CCN(c4cccc5sccc45)CC3)c2c1` [Compound of example 106, 3-(3-(4-(benzo[b]thiophen-4-yl)piperazin-1-yl)propyl)-5-methoxy-1H-indole], the EC50 in experiment [1] worked out at 0.0104 µM. For the same compound, the IC50 in experiment [2] (setting [4]) amounted to 0.662 µM; in experiment [3] it was 0.543 µM.
`O=c1ccc2ccc(CCN3CCN(c4cncc5sccc45)CC3)cc2[nH]1` [Compound of example 43, 7-(2-(4-(thieno[2,3-c]pyridin-4-yl)piperazin-1-yl)ethyl)quinolin-2(1H)-one]: the EC50 in experiment [1] is 0.00123 µM. For the same compound, the IC50 worked out at 0.286 µM in experiment [2] (setting [4]) and 0.241 µM in experiment [3].
Consider `O=C1Cc2cc(CCN3CCN(c4cncc5sccc45)CC3)c(Cl)cc2N1` [Compound of example 42, 6-chloro-5-(2-(4-(thieno[2,3-c]pyridin-4-yl)piperazin-1-yl)ethyl)indolin-2-one], for which the EC50 in experiment [1] is 0.1 µM. The figures for the IC50 in experiment [2] (setting [4]) and in experiment [3] were 0.115 µM and 0.27 µM, respectively.
With `CC(=O)Nc1nc2cc(CCN3CCN(c4cccc5sccc45)CC3)ccc2s1` [Compound of example 118, N-(5-(2-(4-(benzo[b]thiophen-4-yl)piperazin-1-yl)ethyl)benzo[d]thiazol-2-yl)acetamide], the EC50 in experiment [1] was 0.000602 µM. The results for the IC50 in experiment [2] (setting [4]) and in experiment [3] were 0.075 µM and 0.119 µM, respectively.
Regarding `O=C1COc2cc(F)c(CCN3CCN(c4cccc5sccc45)CC3)cc2N1` [Compound of example 66, 6-(2-(4-(benzo[b]thiophen-4-yl)piperazin-1-yl)ethyl)-7-fluoro-2H-benzo[b][1,4]oxazin-3(4H)-one], in experiment [1], the EC50 was 0.00129 µM. The IC50 in experiment [2] (setting [4]) is 0.0815 µM; in experiment [3], 0.0617 µM.
On to `N#Cc1ccc2[nH]cc(CCN3CCN(c4cccc5sccc45)CC3)c2c1` [Compound of example 109, 3-(2-(4-(benzo[b]thiophen-4-yl)piperazin-1-yl)ethyl)-1H-indole-5-carbonitrile], for which the IC50 in experiment [2] (setting [4]) worked out at 0.2 µM; in experiment [3] it was 0.243 µM.
For the compound `O=C1N[C@@H]2[C@@H](CS[C@@H]2CCCCCN2CCN(c3cccc4sccc34)CC2)N1` [Compound of example 134, (3aR,4R,6aS)-4-(5-(4-(benzo[b]thiophen-4-yl)piperazin-1-yl)pentyl)tetrahydro-1H-thieno[3,4-d]imidazol-2(3H)-one], the EC50 in experiment [1] came out at 0.00075 µM. Also, the IC50 turned out to be 0.0167 µM in experiment [2] (setting [4]) and 0.0379 µM in experiment [3].
Turning to `N#Cc1ccc2[nH]cc(CCCN3CCN(c4cccc5sccc45)CC3)c2c1` [Compound of example 108, 3-(3-(4-(benzo[b]thiophen-4-yl)piperazin-1-yl)propyl)-1H-indole-5-carbonitrile], the EC50 in experiment [1] was 0.0449 µM. The values for the IC50 in experiment [2] (setting [4]) and in experiment [3] were 0.819 µM and 0.0217 µM, respectively.
For the compound `O=c1[nH]c(CCN2CCN(c3cccc4sccc34)CC2)nc2ccccc12` [Compound of example 35, 2-(2-(4-(benzo[b]thiophen-4-yl)piperazin-1-yl)ethyl)quinazolin-4(3H)-one], the EC50 in experiment [1] was 0.0419 µM. Moreover, the IC50 in experiment [2] (setting [4]) came out at 0.0215 µM; in experiment [3] it was 0.216 µM.
Turning to `CN1C(=O)CCc2ccc(CCN3CCN(c4cccc5sccc45)CC3)cc21` [Compound of example 115, 7-(2-(4-(benzo[b]thiophen-4-yl)piperazin-1-yl)ethyl)-1-methyl-3,4-dihydroquinolin-2(1H)-one], the EC50 in experiment [1] is 0.00852 µM. Besides, the IC50 stood at 0.0537 µM in experiment [2] and 0.0293 µM in experiment [3].
Consider `c1ccc2[nH]c(CN3CCN(c4cccc5sccc45)CC3)nc2c1` [Compound of example 58, 2-((4-(benzo[b]thiophen-4-yl)piperazin-1-yl)methyl)-1H-benzo[d]imidazole], for which the EC50 in experiment [1] came out at 0.00455 µM. Moreover, the IC50 in experiment [2] (setting [4]) came out at 2.17 µM; in experiment [3], 0.101 µM.
With `O=C1CCc2ccc(C(O)CCCCN3CCN(c4cccc5sccc45)CC3)cc2N1` (centres unmarked) [Compound of example 150, 7-(5-(4-(benzo[b]thiophen-4-yl)piperazin-1-yl)-1-hydroxypentyl)-3,4-dihydroquinolin-2(1H)-one], the EC50 in experiment [1] turned out to be 0.0157 µM. Besides, the IC50 in experiment [2] (setting [4]) stood at 0.108 µM; in experiment [3] it was 0.00454 µM.
Turning to `O=C1CCc2cc(CCN3CCC(c4cccc5sccc45)CC3)ccc2N1` [Compound of example 98, 6-(2-(4-(benzo[b]thiophen-4-yl)piperidin-1-yl)ethyl)-3,4-dihydroquinolin-2(1H)-one], in experiment [1], the EC50 came to 0.0029 µM. Also, the IC50 in experiment [2] (setting [4]) amounted to 0.185 µM; in experiment [3], 0.0124 µM.
As to `COc1ccc2[nH]cc(CCN3CCN(c4cccc5sccc45)CC3)c2c1` [Compound of example 105, 3-(2-(4-(benzo[b]thiophen-4-yl)piperazin-1-yl)ethyl)-5-methoxy-1H-indole], in experiment [2], the IC50 was 0.0255 µM.
As for `Cc1nc2c(OCc3ccccc3)cccn2c(=O)c1CCN1CCN(c2cccc3sccc23)CC1` [Compound of example 17, 3-(2-(4-(benzo[b]thiophen-4-yl)piperazin-1-yl)ethyl)-9-(benzyloxy)-2-methyl-4H-pyrido[1,2-a]pyrimidin-4-one hydrochloride], in experiment [2] (setting [4]), the IC50 was 0.35 µM.
Take `c1cc(N2CCN(CCCCc3nnnn3C3CCCCC3)CC2)c2ccsc2c1` [Compound of example 138, 1-(benzo[b]thiophen-4-yl)-4-(4-(1-cyclohexyl-1H-tetrazol-5-yl)butyl)piperazine hydrochloride]: the IC50 in experiment [3] is 0.0094 µM.
For the compound `O=c1ccc2ccc(CCCCCN3CCN(c4cccc5sccc45)CC3)cc2[nH]1` [Compound of example 11, 7-(5-(4-(benzo[b]thiophen-4-yl)piperazin-1-yl)pentyl)quinolin-2(1H)-one], in experiment [1], the EC50 amounted to 0.00195 µM. In addition, the IC50 in experiment [2] (setting [4]) was 0.209 µM.

For the origin of these results see US10174011B2, “Heterocyclic compounds, process for preparation of the same and use thereof” (SHANGHAI INSTITUTE OF MATERIA MEDICA, CHINESE ACADEMY OF …, priority 2014, dated 2019).
